In patent publication US20180125835A1, “Dosage and Use of an A2A Antagonist” (H. Lundbeck A/S, priority 2014, published 2018):
Read-outs that look alike come from different tables or passages of the source.

Key:
[1] = molecular target: A2A receptor (Mus musculus, UniProt Q60613); assay: Adenosine receptor binding affinity, mouse A2A
[2] = molecular target: T1, A1 receptor (Mus musculus, UniProt Q60612); assay: Adenosine receptor binding affinity, mouse A1
T1 sequence (Q60612 1-326): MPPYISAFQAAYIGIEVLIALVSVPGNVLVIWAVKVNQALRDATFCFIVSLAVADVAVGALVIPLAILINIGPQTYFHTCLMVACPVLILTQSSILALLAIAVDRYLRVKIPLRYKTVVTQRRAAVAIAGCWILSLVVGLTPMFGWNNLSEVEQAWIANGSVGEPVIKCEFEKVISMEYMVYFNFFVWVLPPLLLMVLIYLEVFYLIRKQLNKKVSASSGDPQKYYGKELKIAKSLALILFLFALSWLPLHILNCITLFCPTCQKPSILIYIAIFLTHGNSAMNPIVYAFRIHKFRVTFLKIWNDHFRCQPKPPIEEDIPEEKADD

[3] = system: 57 counter-screen targets (receptors, ion channels and transporters); assay: Counter-screen binding panel of CNS targets
[4] = molecular target: T2, A3 (Homo sapiens, UniProt P0DMS8); assay: Adenosine receptor binding affinity, human A3
T2 sequence (P0DMS8 1-318): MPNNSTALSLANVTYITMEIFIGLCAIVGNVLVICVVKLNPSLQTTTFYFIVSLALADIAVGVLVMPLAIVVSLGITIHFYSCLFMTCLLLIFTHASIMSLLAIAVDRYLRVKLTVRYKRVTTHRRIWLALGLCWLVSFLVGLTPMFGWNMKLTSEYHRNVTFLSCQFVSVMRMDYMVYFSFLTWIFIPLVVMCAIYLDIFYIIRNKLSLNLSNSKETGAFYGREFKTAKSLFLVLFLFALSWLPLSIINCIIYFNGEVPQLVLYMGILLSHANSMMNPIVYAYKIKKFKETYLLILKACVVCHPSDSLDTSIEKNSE

[5] = molecular target: A2A receptor (Homo sapiens, UniProt P29274); assay: PET study in humans of A2A receptor occupancy with [11C]-SCH442416; type: in vivo; conditions: for EC50: plasma concentration at PET scan, read-out: estimated EC50 of A2A receptor occupancy (converted)
A2A receptor (Homo sapiens, UniProt P29274), sequence (P29274 whole entry): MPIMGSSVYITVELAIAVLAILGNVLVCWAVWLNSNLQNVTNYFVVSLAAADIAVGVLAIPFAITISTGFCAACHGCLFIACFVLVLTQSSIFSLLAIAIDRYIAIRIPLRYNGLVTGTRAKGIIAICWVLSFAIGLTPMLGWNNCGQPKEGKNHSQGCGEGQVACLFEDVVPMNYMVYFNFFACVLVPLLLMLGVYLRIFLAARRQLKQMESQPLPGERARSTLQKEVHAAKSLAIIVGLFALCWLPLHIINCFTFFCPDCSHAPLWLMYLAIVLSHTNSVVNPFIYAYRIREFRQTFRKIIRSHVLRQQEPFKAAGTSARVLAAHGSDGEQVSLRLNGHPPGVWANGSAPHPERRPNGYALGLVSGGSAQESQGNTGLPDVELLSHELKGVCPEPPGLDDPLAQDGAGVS
Description: There were 3 cohorts in the study, each including 2 subjects.
In the Screening period (Days −28 to −4) safety screening procedures were performed and subject eligibility was confirmed following a magnetic resonance imaging (MRI) scan (Days −21 to −2). Eligible subjects were admitted to the clinic on Day −1. […] The subjects received the PET tracer [11C]-SCH442416 immediately prior to each PET scan.
The PET tracer, [11C]-SCH442416 was provided as a radiopharmaceutical in an 11 mL sterile and pyrogen free type 1 glass vial as a solution for intravenous administration. The [11C]-SCH442416 solution consisted of up to 10% ethanol and 90% saline and was administered as an intravenous bolus in approximately […] of the saline/ethanol solution over approximately 20 seconds. Each subject received a maximum of 500 MBq of [11C]-SCH442416 for each PET scan.
PET data were analysed using the simplified reference tissue method (SRTM). […] The SRTM implementation employed directly estimated the binding potential relative to the non-displaceable component (BPND), which can be thought of as a measure of specific binding.
Receptor occupancy (RO) in a region of interest (ROI) can then be calculated directly as: RO=100×(1−BPND(post-dose)/BPND(baseline))
Binding potential and estimated RO were listed and presented graphically versus CPET.

[6] = Safety and tolerability study, single-dose pharmacokinetics (Parts A, B, C); type: in vivo, human; conditions: for intra-subject variability (CV %) for AUC0-inf / intra-subject variability (CV %) for Cmax: across the fasting doses; for half-life / Vd/F / Tmax / AUC(0-inf) / Cmax / AUC(0-t): human, oral; for Vd/F: read-out: Vz/F
Description: The study was conducted in three parts: Parts A, B, and C.
Parts A and B were single-dose escalations to determine the safety and tolerability in young healthy men, and in elderly men and women, respectively. Three doses (Cohorts A1 to A3) were tested in healthy young men: 1 mg (N=6), 5 mg (N=6), and 10 mg (N=5); placebo (N=8, total of the three cohorts). […] Two doses (Cohorts B1 and B2) were tested in healthy elderly men and women: 5 mg (N=9 men/4 women), 10 mg (N=4 men/4 women); placebo (N=6 men/4 women, total of the three cohorts). […] A washout period of at least 7 days separated each dose administration.

[7] = both sexes, plasma, 5 mg, Part B, healthy elderly overall, arithmetic mean
[8] = both sexes, plasma, 5 mg, Part C, elderly men and women, Fasting (N = 24)
[9] = both sexes, plasma, 5 mg, Part C, elderly men and women, Fed (N = 12)
[10] = both sexes, plasma, 10 mg, Part B, healthy elderly overall, arithmetic mean
[11] = female, plasma, 5 mg, Part B, healthy elderly women, arithmetic mean
[12] = female, plasma, 10 mg, Part B, healthy elderly women, arithmetic mean
[13] = male, plasma, 1 mg, Part A, healthy young men, 1 mg single dose, mean (CV %)
[14] = male, plasma, 5 mg, Part A, healthy young men, 5 mg single dose, mean (CV %)
[15] = male, plasma, 5 mg, Part B, healthy elderly men, arithmetic mean
[16] = male, plasma, 10 mg, Part A, healthy young men, 10 mg single dose, mean (CV %)
[17] = male, plasma, 10 mg, Part B, healthy elderly men, arithmetic mean

A2A receptor (Mus musculus, UniProt Q60613), sequence (Q60613 whole entry): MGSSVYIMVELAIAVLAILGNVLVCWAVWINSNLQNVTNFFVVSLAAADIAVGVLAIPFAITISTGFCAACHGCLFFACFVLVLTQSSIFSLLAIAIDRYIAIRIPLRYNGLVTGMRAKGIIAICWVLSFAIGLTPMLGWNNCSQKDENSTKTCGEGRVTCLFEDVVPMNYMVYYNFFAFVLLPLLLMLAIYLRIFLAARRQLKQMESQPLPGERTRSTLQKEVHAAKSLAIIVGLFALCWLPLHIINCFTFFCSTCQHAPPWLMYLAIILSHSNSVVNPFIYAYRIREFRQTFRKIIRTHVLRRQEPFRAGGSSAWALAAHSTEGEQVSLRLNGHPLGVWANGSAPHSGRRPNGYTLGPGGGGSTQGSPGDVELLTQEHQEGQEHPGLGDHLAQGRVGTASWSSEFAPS

Cc1ccc(C(=O)Nc2nc(-c3ccco3)c(C(=O)C3CCOCC3)s2)cn1 [Compound 504]
Ki [1]: 0.322 ± 0.0114 nM | Ki [2]: 31.1 ± 1.09 nM | affinity for other receptors, ion channels and transporters ([3]; DA, 5-HT, Ach, GABA, Glu, opiates, cannabinoid, calcium, potassium channels, transporters): Little or no affinity | inhibition of binding ([3]; at 10 μM, any of the 57 counter-screen targets): Less than 50% | Ki [4]: 428 ± 72.5 nM | estimated Emax of A2A receptor occupancy ([5]; globus pallidus, Emax model vs CPET): 101% | EC50 ([5]; globus pallidus): 173 nM | EC50 ([5]; putamen): 78 nM | dosage sufficient to reach an occupancy of 80% ([5]; single oral dose, healthy young men): ≤ 3 mg | differences in exposure between men and women ([6]; Part B): no marked differences | CL/F ([6]; Part B, healthy elderly men, 5 mg, arithmetic mean): 0.611 L/h | CL/F ([6]; Part B, healthy elderly men, 10 mg, arithmetic mean): 0.908 L/h | CL/F ([6]; Part B, healthy elderly overall, 5 mg, arithmetic mean): 0.597 L/h | CL/F ([6]; Part B, healthy elderly overall, 10 mg, arithmetic mean): 0.844 L/h | CL/F ([6]; Part B, healthy elderly women, 5 mg, arithmetic mean): 0.556 L/h | CL/F ([6]; Part B, healthy elderly women, 10 mg, arithmetic mean): 0.780 L/h | mean Cmax lower in the fed state than in the fasting state ([6]; Part C, 5 mg): approximately 23% | overall exposure (AUC0-inf and AUC0-t) fed compared to fasting ([6]; Part C, 5 mg): not statistically significantly different | intra-subject variability (CV %) for AUC0-inf ([6]; Part C, men): 27% | intra-subject variability (CV %) for Cmax ([6]; Part C, men): 16% | intra-subject variability (CV %) for AUC0-inf ([6]; Part C, women): 59% | intra-subject variability (CV %) for Cmax ([6]; Part C, women): 23% | time until which plasma concentration plateaued after Cmax ([6]; Parts A and B, post-dose): approximately 5 hours | half-life ([6]; both sexes, in vivo, Parts A and B, 1 to 10 mg, read-out: mean half-life (t1/2) across dose levels): 19 to 25 h | Vd/F ([6]; both sexes, plasma, 5 mg, Part B, healthy elderly overall, 5 mg, arithmetic mean): 16.9 L | half-life ([6]; both sexes, plasma, 5 mg, Part B, healthy elderly overall, 5 mg, arithmetic mean, read-out: t1/2 (converted)): 22 h | Tmax ([6]; both sexes, plasma, 5 mg, Part B, healthy elderly overall, 5 mg, median, read-out: tmax): 1 h | AUC(0-inf) [6, 7]: 9580 ng·h/mL | Cmax [6, 7]: 388 ng/mL | Tmax ([6]; both sexes, plasma, 5 mg, Part C, 5 mg, read-out: delay of median tmax in the fed state): 2 to 3 h | half-life ([6]; both sexes, plasma, 5 mg, Part C, elderly men and women, 5 mg, Fasting (N = 24), read-out: t1/2 (converted)): 14.9 h | half-life ([6]; both sexes, plasma, 5 mg, Part C, elderly men and women, 5 mg, Fed (N = 11), read-out: t1/2 (converted)): 15.8 h | AUC(0-inf) [6, 8]: 6310 ng·h/mL | AUC(0-t) [6, 8]: 5960 ng·h/mL | Cmax [6, 8]: 348 ng/mL | AUC(0-inf) ([6]; both sexes, plasma, 5 mg, Part C, elderly men and women, Fed (N = 11)): 5960 ng·h/mL | AUC(0-t) [6, 9]: 5560 ng·h/mL | Cmax [6, 9]: 269 ng/mL | Vd/F ([6]; both sexes, plasma, 10 mg, Part B, healthy elderly overall, 10 mg, arithmetic mean): 20.6 L | half-life ([6]; both sexes, plasma, 10 mg, Part B, healthy elderly overall, 10 mg, arithmetic mean, read-out: t1/2 (converted)): 20.2 h | Tmax ([6]; both sexes, plasma, 10 mg, Part B, healthy elderly overall, 10 mg, median, read-out: tmax): 0.75 h | AUC(0-inf) [6, 10]: 14900 ng·h/mL | Cmax [6, 10]: 717 ng/mL | Tmax ([6]; both sexes, plasma, Parts A and B, each dose, post-dose, read-out: median tmax): 0.75 to 1.75 h | increase of exposure (AUC0-24 and Cmax) with dose ([6]; dose range 1 to 10 mg): approximate dose-proportional manner | Vd/F ([6]; female, plasma, 5 mg, Part B, healthy elderly women, 5 mg, arithmetic mean): 13.6 L | half-life ([6]; female, plasma, 5 mg, Part B, healthy elderly women, 5 mg, arithmetic mean, read-out: t1/2 (converted)): 17.4 h | Tmax ([6]; female, plasma, 5 mg, Part B, healthy elderly women, 5 mg, median, read-out: tmax): 1 h | AUC(0-inf) [6, 11]: 9550 ng·h/mL | Cmax [6, 11]: 485 ng/mL | Vd/F ([6]; female, plasma, 10 mg, Part B, healthy elderly women, 10 mg, arithmetic mean): 19.6 L | half-life ([6]; female, plasma, 10 mg, Part B, healthy elderly women, 10 mg, arithmetic mean, read-out: t1/2 (converted)): 18.8 h | Tmax ([6]; female, plasma, 10 mg, Part B, healthy elderly women, 10 mg, median, read-out: tmax): 0.75 h | AUC(0-inf) [6, 12]: 14100 ng·h/mL | Cmax [6, 12]: 781 ng/mL | differences in pharmacokinetic profile between healthy young and elderly subjects ([6]; in vivo): no apparent differences | AUC(0-inf) [6, 13]: 2660 ng·h/mL | Cmax [6, 13]: 82.7 ng/mL | Vd/F [6, 13]: 13.4 L | half-life ([6]; male, plasma, 1 mg, Part A, healthy young men, 1 mg single dose, mean (CV %), read-out: t1/2 (converted)): 24.3 h | Tmax ([6]; male, plasma, 1 mg, Part A, healthy young men, 1 mg single dose, median (min, max), read-out: tmax): 1.25 h | AUC(0-inf) [6, 14]: 12600 ng·h/mL | Cmax [6, 14]: 423 ng/mL | Vd/F [6, 14]: 14.8 L | half-life ([6]; male, plasma, 5 mg, Part A, healthy young men, 5 mg single dose, mean (CV %), read-out: t1/2 (converted)): 25 h | Tmax ([6]; male, plasma, 5 mg, Part A, healthy young men, 5 mg single dose, median (min, max), read-out: tmax): 1.75 h | Vd/F ([6]; male, plasma, 5 mg, Part B, healthy elderly men, 5 mg, arithmetic mean): 18 L | half-life ([6]; male, plasma, 5 mg, Part B, healthy elderly men, 5 mg, arithmetic mean, read-out: t1/2 (converted)): 23.5 h | Tmax ([6]; male, plasma, 5 mg, Part B, healthy elderly men, 5 mg, median, read-out: tmax): 1 h | AUC(0-inf) [6, 15]: 9590 ng·h/mL | Cmax [6, 15]: 356 ng/mL | AUC(0-inf) [6, 16]: 18100 ng·h/mL | Cmax [6, 16]: 787 ng/mL | Vd/F [6, 16]: 15.3 L | half-life ([6]; male, plasma, 10 mg, Part A, healthy young men, 10 mg single dose, mean (CV %), read-out: t1/2 (converted)): 19.3 h | Tmax ([6]; male, plasma, 10 mg, Part A, healthy young men, 10 mg single dose, median (min, max), read-out: tmax): 1 h | Vd/F ([6]; male, plasma, 10 mg, Part B, healthy elderly men, 10 mg, arithmetic mean): 21.6 L | half-life ([6]; male, plasma, 10 mg, Part B, healthy elderly men, 10 mg, arithmetic mean, read-out: t1/2 (converted)): 21.6 h | Tmax ([6]; male, plasma, 10 mg, Part B, healthy elderly men, 10 mg, median, read-out: tmax): 0.75 h | AUC(0-inf) [6, 17]: 15700 ng·h/mL | Cmax [6, 17]: 652 ng/mL
